How the values were obtained:
[1] = tested on: Glomerella Lagenarium (Colletotrichum Lagenarium); assay: Fungicidal activity against Glomerella lagenarium (Colletotrichum lagenarium) liquid culture / cucumber / preventative (anthracnose); assay type: cell-based; conditions: Colletotrichum orbiculare; 20 ppm in the applied formulation; liquid culture in PDB, growth inhibition measured photometrically 3 to 4 days after application; compared to untreated; read-out: disease control
Procedure: (§1) General examples of leaf disk tests in well plates: Leaf disks or leaf segments of various plant species are cut from plants grown in a greenhouse. The cut leaf disks or segments are placed in multiwell plates (24-well format) onto water agar. The leaf disks are sprayed with a test solution before (preventative) or after (curative) inoculation. Compounds to be tested are prepared as DMSO solutions (max. 10 mg/ml) which are diluted to the appropriate concentration with 0.025% Tween20 just before spraying. The inoculated leaf disks or segments are incubated under defined conditions (temperature, relative humidity, light, etc.) according to the respective test system. A single evaluation of disease level is carried out 3 to 14 days after inoculation, depending on the pathosystem. Percent disease control relative to the untreated check leaf disks or segments is then calculated. General examples of liquid culture tests in well plates: Mycelia fragments or conidia suspensions of a fungus prepared either freshly from liquid cultures of the fungus or from cryogenic storage, are directly mixed into nutrient broth. DMSO solutions of the test compound (max. 10 mg/ml) are diluted with 0.025% Tween20 by a factor of 50 and 10 μl of this solution is pipetted into a microtiter plate (96-well format). The nutrient broth containing the fungal spores/mycelia fragments is then added to give an end concentration of the tested compound. The test plates are incubated in the dark at 24° C. and 96% relative humidity. The inhibition of fungal growth is determined photometrically after 2 to 7 days, depending on the pathosystem, and percent antifungal activity relative to the untreated check is calculated.
Example 4: Fungicidal Activity Against Glomerella Lagenarium (Colletotrichum Lagenarium) Liquid Culture/Cucumber/Preventative (Anthracnose)
Conidia of the fungus from cryogenic storage are directly mixed into nutrient broth (PDB—potato dextrose broth). After placing a (DMSO) solution of test compound into a microtiter plate (96-well format), the nutrient broth containing the fungal spores is added. The test plates are incubated at 24° C. and the inhibition of growth is measured photometrically 3 to 4 days after application.
The following compounds at 20 ppm in the applied formulation give at least 80% disease control in this test when compared to untreated control under the same conditions, which show extensive disease development.

Phakopsora pachyrhizi = assay: Fungicidal activity against Phakopsora pachyrhizi / soybean / leaf disc preventative (Asian soybean rust); assay type: in vivo; conditions: foliar, 200 ppm in the applied formulation, soybean leaf disks, inoculated one day after application, compared to untreated, read-out: disease control
Procedure: as §1
Example 3: Fungicidal Activity Against Phakopsora pachyrhizi/Soybean/Leaf Disc Preventative (Asian Soybean Rust)
Soybean leaf disks are placed on water agar in multiwell plates (24-well format) and sprayed with the formulated test compound diluted in water. One day after application leaf discs are inoculated by spraying a spore suspension on the lower leaf surface. After an incubation period in a climate cabinet of 24-36 hours in darkness at 20° C. and 75% rh leaf disc are kept at 20° C. with 12 h light/day and 75% rh. The activity of a compound is assessed as percent disease control compared to untreated when an appropriate level of disease damage appears in untreated check leaf disks (12 to 14 days after application).
(§2) The following compounds at 200 ppm in the applied formulation give at least 80% disease control in this test when compared to untreated control leaf disks under the same conditions, which show extensive disease development.

[2] = tested on: Puccinia Recondite f. Sp. Tritici; assay: Fungicidal activity against Puccinia recondita f. sp. tritici / wheat / leaf disc curative (brown rust); assay type: in vivo; conditions: foliar, 24 h, 200 ppm in the applied formulation, wheat leaf segments cv. Kanzler, applied 1 day after inoculation, compared to untreated, read-out: disease control
Procedure: as §1
Example 2: Fungicidal Activity Against Puccinia Recondite f. Sp. Tritici Wheat/Leaf Disc Curative (Brown Rust)
Wheat leaf segments cv. Kanzler are placed on agar in multiwell plates (24-well format). The leaf segments are then inoculated with a spore suspension of the fungus. Plates were stored in darkness at 19° C. and 75% relative humidity. The formulated test compound diluted in water was applied 1 day after inoculation. The leaf segments were incubated at 19° C. and 75% relative humidity under a light regime of 12 hours light/12 hours darkness in a climate cabinet and the activity of a compound was assessed as percent disease control compared to untreated when an appropriate level of disease damage appears in untreated check leaf segments (6 to 8 days after application).
as §2

[3] = tested on: Puccinia recondita f, Sp. Tritici; assay: Fungicidal activity against Puccinia recondita f. sp. tritici / wheat / leaf disc preventative (brown rust); assay type: in vivo; conditions: foliar, 200 ppm in the applied formulation, wheat leaf segments cv. Kanzler, inoculated 1 day after application, compared to untreated, read-out: disease control
Procedure: as §1
Example 1: Fungicidal Activity Against Puccinia recondita f, Sp. Tritici/Wheat/Leaf Disc Preventative (Brown Rust)
Wheat leaf segments cv. Kanzler were placed on agar in multiwell plates (24-well format) and sprayed with the formulated test compound diluted in water. The leaf disks were inoculated with a spore suspension of the fungus 1 day after application. The inoculated leaf segments were incubated at 19° C. and 75% relative humidity (rh) under a light regime of 12 hours light/12 hours darkness in a climate cabinet and the activity of a compound was assessed as percent disease control compared to untreated when an appropriate level of disease damage appears in untreated check leaf segments (7 to 9 days after application).
as §2

O=C(NCc1ccc(-c2noc(C(F)(F)F)n2)cc1F)NCC1CC1 [Compound 2.2, 1-(cyclopropylmethyl)-3-[[2-fluoro-4-[5-(trifluoromethyl)-1,2,4-oxadiazol-3-yl]phenyl]methyl]urea]
melting point: 157 to 160 °C
inhibition of growth at 20 ppm [1]: ≥ 80%
pest or weed control at 200 ppm (Phakopsora pachyrhizi): ≥ 80%

O=C(NCc1ccc(-c2noc(C(F)(F)F)n2)c(F)c1)N1CCOCC1 [Compound 3.3, N-[[3-fluoro-4-[5-(trifluoromethyl)-l,2,4-oxadiazol-3-yl]phenyl]methyl] morpholine-4-carboxamide]
pest or weed control at 200 ppm [2]: ≥ 80%
pest or weed control at 200 ppm [3]: ≥ 80%
melting point: 82 to 94 °C
inhibition of growth at 20 ppm [1]: ≥ 80%

O=C(NCc1ccc(-c2noc(C(F)(F)F)n2)cc1)NCC1CC1 [Compound 2.1, 1-(cyclopropylmethyl)-3-[[4-[5-(trifluoromethyl)-1,2,4-oxadiazol-3-yl]phenyl]methyl]urea]
pest or weed control at 200 ppm [3]: ≥ 80%
melting point: 158.8 to 165 °C
inhibition of growth at 20 ppm [1]: ≥ 80%
pest or weed control at 200 ppm (Phakopsora pachyrhizi): ≥ 80%

O=C(NCCc1ccc(-c2noc(C(F)(F)F)n2)cc1)NC1CC1 [Compound 2.32, 1-cyclopropyl-3-[2-[4-[5-(trifluoromethyl)-1,2,4-oxadiazol-3-yl]phenyl]ethyl]urea]
melting point: 147 to 159 °C

CN(CC1CC1)C(=O)NCc1ccc(-c2noc(C(F)(F)F)n2)cc1 [Compound 2.31, 1-(cyclopropylmethyl)-1-methyl-3-[[4-[5-(trifluoromethyl)-1,2,4-oxadiazol-3-yl]phenyl]methyl]urea]
pest or weed control at 200 ppm [2]: ≥ 80%
pest or weed control at 200 ppm [3]: ≥ 80%
inhibition of growth at 20 ppm [1]: ≥ 80%
pest or weed control at 200 ppm (Phakopsora pachyrhizi): ≥ 80%

C#CCN(C(=O)NCc1ccc(-c2noc(C(F)(F)F)n2)cc1)C1CC1 [Compound 2.30, 1-cyclopropyl-1-prop-2-ynyl-3-[[4-[5-(trifluoromethyl)-1,2,4-oxadiazol-3-yl]phenyl]methyl]urea]
pest or weed control at 200 ppm [2]: ≥ 80%
pest or weed control at 200 ppm [3]: ≥ 80%
inhibition of growth at 20 ppm [1]: ≥ 80%
pest or weed control at 200 ppm (Phakopsora pachyrhizi): ≥ 80%

CCN(C(=O)NCc1ccc(-c2noc(C(F)(F)F)n2)cc1)C1CC1 [Compound 2.27, 1-cyclopropyl-1-ethyl-3-[[4-[5-(trifluoromethyl)-1,2,4-oxadiazol-3-yl]phenyl]methyl]urea]
pest or weed control at 200 ppm [2]: ≥ 80%
pest or weed control at 200 ppm [3]: ≥ 80%
inhibition of growth at 20 ppm [1]: ≥ 80%
pest or weed control at 200 ppm (Phakopsora pachyrhizi): ≥ 80%

O=C(NCc1ccc(-c2noc(C(F)(F)F)n2)cc1)N1CCCO1 [Compound 3.5, N-[[4-[5-(trifluoromethyl)-l,2,4-oxadiazol-3-yl]phenyl]methyl] isoxazolidine-2-carboxamide]
pest or weed control at 200 ppm [2]: ≥ 80%
pest or weed control at 200 ppm [3]: ≥ 80%
inhibition of growth at 20 ppm [1]: ≥ 80%
pest or weed control at 200 ppm (Phakopsora pachyrhizi): ≥ 80%

O=C(NCc1ccc(-c2noc(C(F)(F)F)n2)c(F)c1)Nc1ccccc1Cl [Compound 2.21, 1-(2-chlorophenyl)-3-[[3-fluoro-4-[5-(trifluoromethyl)-1,2,4-oxadiazol-3-yl]phenyl]methyl]urea]
pest or weed control at 200 ppm [3]: ≥ 80%
melting point: 173 to 178 °C

CN(C(=O)NCc1ccc(-c2noc(C(F)(F)F)n2)cc1)C1CC1 [Compound 2.22, 1-cyclopropyl-1-methyl-3-[[4-[5-(trifluoromethyl)-1,2,4-oxadiazol-3-yl]phenyl]methyl]urea]
pest or weed control at 200 ppm [2]: ≥ 80%
pest or weed control at 200 ppm [3]: ≥ 80%
inhibition of growth at 20 ppm [1]: ≥ 80%
pest or weed control at 200 ppm (Phakopsora pachyrhizi): ≥ 80%

O=C(NCc1ccc(-c2noc(C(F)(F)F)n2)cn1)Nc1cccc(F)c1 [Compound 2.17, 1-(3-fluorophenyl)-3-[[5-[5-(trifluoromethyl)-1,2,4-oxadiazol-3-yl]-2-pyridyl]methyl]urea]
pest or weed control at 200 ppm [2]: ≥ 80%
pest or weed control at 200 ppm [3]: ≥ 80%
inhibition of growth at 20 ppm [1]: ≥ 80%
pest or weed control at 200 ppm (Phakopsora pachyrhizi): ≥ 80%

Reference: US20190364899A1, “MICROBIOCIDAL OXADIAZOLE DERIVATIVES” (SYNGENTA PARTICIPATIONS AG, priority 2015, published 2019)
